US20110178104A1, “Anti-Heparin Compounds” (POLYMEDIX INC., priority 2010, published 2011)

Assays:
fondaparinux (FONDAPX) = test: FXa chromogenic assay (absence of plasma), fondaparinux; settings: fondaparinux 0.02 μg/mL, absence of plasma
enoxaparin (ENOX) = test: FXa chromogenic assay (absence of plasma), enoxaparin; settings: enoxaparin 0.1 μg/mL, absence of plasma

| SMILES | FONDAPX (FXa) EC50 (fondaparinux (FONDAPX)) | ENOX (FXa) EC50 (enoxaparin (ENOX)) |
| --- | --- | --- |
| COc1ccc(NC(=O)[C@@H](CCCNC(=N)N)NC(=O)c2cc(NC(=O)[C@@H](CCCNC(=N)N)NC(=O)c3cc(NC(=O)[C@@H](C)NC(=O)c4cc(NC(=O)[C@H](N)CCCNC(=N)N)ccc4OC)ccc3OC)ccc2OC)cc1C(N)=O [Compound 15] | 7.84 µg/mL | 0.92 µg/mL |
| N=C(N)NCCC[C@@H](N)C(=O)Nc1cccc(C(=O)N[C@H](CCCNC(=N)N)C(=O)Nc2cccc(C(=O)N[C@H](CCCNC(=N)N)C(=O)Nc3cccc(C(=O)N[C@H](CCCNC(=N)N)C(=O)Nc4cccc(C(N)=O)c4)c3)c2)c1 [Compound 20] | 11.10 µg/mL | 8.62 µg/mL |
| COc1ccc(NC(=O)[C@@H](CCCNC(=N)N)NC(=O)c2cccc(NC(=O)[C@H](N)CCCNC(=N)N)c2)cc1C(=O)N[C@H](CCCNC(=N)N)C(=O)Nc1ccc(OC)c(C(=O)N[C@H](CCCNC(=N)N)C(=O)Nc2cccc(C(N)=O)c2)c1 [Compound 21] | 8.84 µg/mL | 0.65 µg/mL |
| COc1ccc(NC(=O)[C@@H](CCCNC(=N)N)NC(=O)c2cc(NC(=O)[C@@H](CCCNC(=N)N)NC(=O)c3cccc(NC(=O)[C@@H](CCCNC(=N)N)NC(=O)c4cccc(NC(=O)[C@H](N)CCCNC(=N)N)c4)c3)ccc2OC)cc1C(N)=O [Compound 22] | 7.63 µg/mL | 0.56 µg/mL |
| N=C(N)NCCC[C@@H](N)C(=O)Nc1ccc(F)c(C(=O)N[C@H](CCCNC(=N)N)C(=O)Nc2ccc(F)c(C(=O)N[C@H](CCCNC(=N)N)C(=O)Nc3ccc(F)c(C(=O)N[C@H](CCCNC(=N)N)C(=O)Nc4ccc(F)c(C(N)=O)c4)c3)c2)c1 [Compound 23] | 18.01 µg/mL | 3.68 µg/mL |
| COc1ccc(NC(=O)[C@@H](CCCNC(=N)N)NC(=O)c2cc(NC(=O)[C@H](N)CCCNC(=N)N)ccc2F)cc1C(=O)N[C@H](CCCNC(=N)N)C(=O)Nc1ccc(OC)c(C(=O)N[C@H](CCCNC(=N)N)C(=O)Nc2ccc(F)c(C(N)=O)c2)c1 [Compound 24] | 9.23 µg/mL | 0.47 µg/mL |
| COc1ccc(NC(=O)[C@@H](CCCNC(=N)N)NC(=O)c2cc(NC(=O)[C@@H](CCCNC(=N)N)NC(=O)c3cc(NC(=O)[C@@H](CCCNC(=N)N)NC(=O)c4cc(NC(=O)[C@H](N)CCCNC(=N)N)ccc4F)ccc3F)ccc2OC)cc1C(N)=O [Compound 25] | 10.36 µg/mL | 0.97 µg/mL |
| COc1ccc(NC(=O)C(CCCCN)NC(=O)c2cc(NC(=O)C(CCCCN)NC(=O)c3cc(NC(=O)C(CCCCN)NC(=O)c4cc(NC(=O)C(CCCCN)NC(=N)N)ccc4OC)ccc3OC)ccc2OC)cc1C(N)=O (stereo not shown) [Compound 29] | 8.33 µg/mL | 0.78 µg/mL |
| COc1ccc(NC(=O)[C@@H](CCCCN)NC(=O)c2cc(NC(=O)[C@@H](CCCNC(=N)N)NC(=O)c3cc(NC(=O)[C@@H](CCCCN)NC(=O)c4cc(NC(=O)[C@H](N)CCCCN)ccc4OC)ccc3OC)ccc2OC)cc1C(N)=O [Compound 32] | inactive | 30.00 µg/mL |
| COc1ccc(NC(=O)[C@@H](CCCNC(N)=O)NC(=O)c2cc(NC(=O)[C@@H](CCCNC(N)=O)NC(=O)c3cc(NC(=O)[C@@H](CCCNC(N)=O)NC(=O)c4cc(NC(=O)[C@H](N)CCCNC(N)=O)ccc4OC)ccc3OC)ccc2OC)cc1C(N)=O [Compound 33] | inactive | 4.30 µg/mL |
| COc1ccc(NC(=O)[C@@H](CCCCN)NC(=O)c2c(OC)ccc(NC(=O)[C@@H](CCCCN)NC(=O)c3c(OC)ccc(NC(=O)[C@@H](CCCCN)NC(=O)c4c(OC)ccc(NC(=O)[C@H](N)CCCCN)c4OC)c3OC)c2OC)c(OC)c1C(N)=O [Compound 36] | inactive | 45.00 µg/mL |
| COc1ccc(NC(=O)[C@@H](CCCCN)NC(=O)c2cc(NC(=O)[C@H](CCCCN)NC(=O)c3cc(NC(=O)[C@@H](CCCCN)NC(=O)c4cc(NC(=O)[C@@H](N)CCCCN)ccc4OC)ccc3OC)ccc2OC)cc1C(N)=O [Compound 37] | inactive | 45.00 µg/mL |
| COc1ccc(NC(=O)[C@@H](CCCNC(=N)N)NC(=O)c2cc(NC(=O)[C@@H](CCCNC(=N)N)NC(=O)c3cc(NC(=O)[C@@H](CCCNC(=N)N)NC(=O)c4cc(NC(=O)[C@H](N)CCCNC(=N)N)ccc4OC)ccc3OC)ccc2OC)cc1C(=O)NCCN [Compound 51] | 4.26 µg/mL | 0.15 µg/mL |
| COc1ccc(NC(=O)[C@@H](CCCNC(=N)N)NC(=O)c2cc(NC(=O)[C@@H](CCCNC(=N)N)NC(=O)c3cc(NC(=O)[C@@H](CCCNC(=N)N)NC(=O)c4cc(NC(=O)[C@@H](C)N)ccc4OC)ccc3OC)ccc2OC)cc1C(=O)NCCN [Compound 54] | 5.92 µg/mL | 0.22 µg/mL |
| COc1ccc(NC(=O)[C@@H](CCCNC(=N)N)NC(=O)c2cc(NC(=O)[C@@H](CCCNC(=N)N)NC(=O)c3cc(NC(=O)[C@@H](CCCNC(=N)N)NC(=O)c4cc(NC(=O)[C@@H](C)N)ccc4OC)ccc3OC)ccc2OC)cc1C(=O)NCCCCCN [Compound 55] | 4.16 µg/mL | 0.18 µg/mL |
| COc1ccc(NC(=O)[C@@H](CCCNC(=N)N)NC(=O)c2cc(NC(=O)[C@@H](CCCNC(=N)N)NC(=O)c3cc(NC(=O)[C@@H](CCCNC(=N)N)NC(=O)c4cc(NC(=O)[C@@H](C)NC(C)=O)ccc4OC)ccc3OC)ccc2OC)cc1C(=O)NCCN [Compound 56] | 5.24 µg/mL | 0.43 µg/mL |
| COc1ccc(NC(=O)[C@@H](CCCNC(=N)N)NC(=O)c2cc(NC(=O)[C@@H](CCCNC(=N)N)NC(=O)c3cc(NC(=O)[C@@H](CCCNC(=N)N)NC(=O)c4cc(NC(=O)[C@@H](C)NC(=O)CCCCNC(=N)N)ccc4OC)ccc3OC)ccc2OC)cc1C(=O)NCCN [Compound 57] | 3.25 µg/mL | 0.17 µg/mL |
| COc1ccc(NC(=O)[C@@H](CCCNC(=N)N)NC(=O)c2cc(NC(=O)[C@@H](CCCNC(=N)N)NC(=O)c3cc(NC(=O)[C@@H](CCCNC(=N)N)NC(=O)c4cc(NC(=O)[C@@H](C)NC(=O)CCCCN)ccc4OC)ccc3OC)ccc2OC)cc1C(=O)NCCN [Compound 58] | 3.94 µg/mL | 0.36 µg/mL |
| COc1ccc(NC(=O)[C@@H](CCCNC(=N)N)NC(=O)c2cc(NC(=O)[C@@H](CCCNC(=N)N)NC(=O)c3cc(NC(=O)[C@@H](CCCNC(=N)N)NC(=O)c4cc(NC(=O)[C@@H](C)NC(=O)CCN)ccc4OC)ccc3OC)ccc2OC)cc1C(=O)NCCN [Compound 59] | 4.53 µg/mL | 0.13 µg/mL |
| COc1ccc(NC(=O)[C@@H](CCCNC(=N)N)NC(=O)c2cc(NC(=O)[C@@H](CCCNC(=N)N)NC(=O)c3cc(NC(=O)[C@@H](CCCNC(=N)N)NC(=O)c4cc(NC(=O)[C@@H](C)NC(C)=O)ccc4OC)ccc3OC)ccc2OC)cc1C(=O)NCCCCCN [Compound 60] | 2.66 µg/mL | 0.21 µg/mL |
